What was measured:
Assay type in all cases: in vivo, rat
[1] = system: pituitary hormone levels in plasma; experiment: Pituitary hormone levels in plasma after GALP administration into the third ventricle; settings: Wistar rats
Method: Effects of GALP administration into the third ventricle on pituitary hormone levels in plasma were examined. Briefly, adult male Wistar rats (body weight: 350-380 g at the time of surgery) were anesthetized by intraperitoneal administration of 50 mg/kg pentobarbital and fixed in a stereotaxic apparatus for rat brain. The incisor bar was set 3.3 mm below the interaural line. The skull surface was exposed, and a hole was drilled in the skull with a dental drill in order to implant a guide cannula AG-8 (inside dia. 0.4 mm, outside dia. 0.5 mm; Eicom) in the third ventricle. Further, four anchor screws were embedded around the hole. A stainless guide cannula (AG-12) was inserted so that its tip was located above the third ventricle. The stereotaxic coordinates were set as follows according to the atlas of Paxinos and Watson (1998): AP: −0.8 mm, L: 0.0 mm, […] from bregma. The guide cannula was fixed onto the skull with instant glue, dental cement and the anchor screws. […]
The rats were allowed about one week for recovery after the implantation of the guide cannula. […] Growth hormone (GH), thyroid-stimulating hormone (TSH), follicle-stimulating hormone (FSH), LH, prolactin and adorenocorticotropic hormone (ACTH) contained in the plasma were quantified by radioimmunoassay (GH, TSH, FSH, LH and prolactin; Amersham) (ACTH; Mitsubishi Kagaku).

blood LH levels [2] = experiment: Blood LH level time course after intraventricular administration in freely moving Wistar rats; settings: for blood LH level compared with the control group: third ventricle, 0-60 min
Method: A guide cannula was implanted in adult male Wistar rats treated in the same manner as described in Example 1. The rats were allowed about one week for recovery from the surgery. Then, they received another surgery so that blood samples can be taken from them moving freely. Briefly, the guide cannula-implanted rat was anesthetized by intraperitoneal administration of […] pentobarbital and fixed on an anatomical pad in face-up position. Then, the left jugular vein was exposed. A polyethylene tube SP35 (inside dia. 0.5 mm, outside dia. 0.9 mm; Natsume Seisakusho) was cut to give an about 30 cm length, filled with 200 U/ml heparin-containing physiological saline, inserted into the jugular vein about 4.5 cm, and fixed. The other end of the tube was passed subcutaneously through dorsal skin and exposed from the neck (dorsal).
After one night from the surgery, 300 μl of blood was collected from each rat using a 1 ml injection syringe for tuberculin and a 25-gauge injection needle (both Terumo Corp.) prior to the administration of rat GALP (a peptide consisting of the amino acid sequence as shown in SEQ ID NO: 33). In order to prevent blood coagulation, 10 μl of 300 KIU/ml aprotinin solution containing 3 mg/ml EDTA was added in advance into the injection syringe. The cap nut and the dummy cannula installed on the rat skull were removed. Instead of them, a stainless microinjection cannula (inside dia. 0.17 mm, outside dia. 0.35 mm; Eicom) connected with a Teflon tube (length 50 cm, inside dia. 0.1 mm, outside dia. 0.35 mm; Eicom) was inserted into the guide cannula. The length of the microinjection cannula was adjusted in advance so that 1 mm of it tip was exposed from the guide cannula. One end of the Teflon tube was connected with a microsyringe pump. […] Five minutes after the completion of the injection, the microinjection cannula was removed, and a dummy cannula was fixed again with a cap nut. […] The LH levels in the plasma were measured by radioimmunoassay (Amersham).

blood LH levels [3] = experiment: Blood LH levels after intraventricular GALP in Zucker fatty and Zucker lean rats; settings: 1 nmol third ventricle
Method: Effects of GALP administration into the third ventricle on LH levels in plasma were examined using Zucker obese rats having an abnormality of Leptin receptor. Briefly, adult male Zucker obese rats (body weights at the time of surgery: fatty: 410-430 g; lean: 290-310 g) were anesthetized by intraperitoneal administration of 50 mg/kg pentobarbital and fixed in a stereotaxic apparatus for rat brain. The incisor bar was set 3.3 mm below the interaural line. The skull surface was exposed, and a hole was drilled in the skull with a dental drill in order to implant a guide cannula AG-8 (inside dia. 0.4 mm, outside dia. 0.5 mm; Eicom) in the third ventricle. Further, four anchor screws were embedded around the hole. A stainless guide cannula (AG-12) was inserted so that its tip was located above the third ventricle. The stereotaxic coordinates were set as follows according to the atlas of Paxinos and Watson (1998): for Zucker fatty, AP: −1.00 mm, L: 0.0 mm, H: 5.6 mm from bregma, and for Zucker lean, AP: −0.9 mm, L: 0.0 mm, H: 5.4 mm from bregma. The guide cannula was fixed onto the skull with instant glue, dental cement and the anchor screws. […]
The rats were allowed about one week for recovery after the implantation of the guide cannula. […] The LH levels in the plasma were measured by radioimmunoassay (Amersham).

Substance: rat GALP (APAHRGRGGWTLNSAGYLLGPVLHLSSKANQGRKTDSALEILDLWKAIDGLPYSRSPRMT; Rat)
- blood LH level compared to the control group ([1]; 0.5 nmol and 5 nmol intraventricular, 10 min after injection): significant increase
- other pituitary hormone levels in blood (FSH, GH, TSH, ACTH, prolactin) ([1]; intraventricular, 5 nmol/rat): no other pituitary hormone levels were changed
- blood LH level compared with the control group (blood LH levels [2]; 1 nmol administration group): tendency to rise
- time of peak of blood LH rise after the administration (blood LH levels [2]; 5 nmol administration group): 30 min
- blood LH level compared with the control group (blood LH levels [2]; 5 nmol administration group): significant rise
- blood LH levels compared with the control group (blood LH levels [3]; Zucker fatty rats, at 10, 20 and 30 min): significant rise
- blood LH levels compared with the control group (blood LH levels [3]; Zucker lean rats): no significant rise
